Results: patent publication US11084783B2, “O-alkyl-benzylideneguanidine derivatives and therapeutic use for the treatment of disorders associated with an accumulation of misfolded proteins” (INFLECTIS BIOSCIENCE, priority 2014, dated 2021)

Columns and labels:
Type in all cases: cell-based
[1] = system: mouse embryonic fibroblasts lipofected with poly I:C; test: In vitro inflammation/infection model: poly I:C induced mouse embryonic fibroblasts; conditions: 25 μM, 6h, IFN-beta ELISA in culture supernatants
Experimental: Mouse Embryonic Fibroblasts (MEFs) were lipofected with poly I:C and treated with […] compounds of the invention (25 μM) for 6h. After 6h of culture, elF2alpha-phosphorylation (elF2a-P) and PPP1R15A (GADD34) expression was monitored by western blotting, while type-1 Interferon(IFN)-beta production was quantified in culture supernatants by ELISA. Control (nt) and poly I:C/DMSO are respectively negative and positive controls. Poly I:C (polyinosinic:polycytidylic acid or polyinosinic-polycytidylic acid sodium salt) is an immunostimulant used to simulate viral infections. Poly I:C which is structurally similar to double-stranded RNA, is known to interact with toll-like receptor 3 which is expressed in the intracellular compartments of B-cells and dendritic cells. Guanabenz (25 μM) was used as reference inhibitory compound.
MEFs were cultured in DMEM, 10% FCS (HyClone, Perbio), 100 units/ml penicillin, 100 μg/ml streptomycin, 2 mM glutamine, 1× MEM non-essential amino acids and 50 μM 2-mercaptoethanol. MEFS were treated for the indicated time with 10 μg/ml poly I:C (InvivoGen) in combination with lipofectamine 2000 (Invitrogen).
Cells were lysed in 1% Triton X-100, 50 mM Hepes, 10 mM NaCl, 2.5 mM MgCl2, 2 mM EDTA, 10% glycerol, supplemented with Complete Mini Protease Inhibitor Cocktail Tablets (Roche). Protein quantification was performed using the BCA Protein Assay (Pierce). 25-50 μg of Triton X-100-soluble material was loaded on 2%-12% gradient or 8% SDS-PAGE before immunoblotting and chemi-luminescence detection (SuperSignal West Pico Chemi-luminescent Substrate, Pierce). Rabbit polyclonal antibodies recognizing GADD34 (C-19) were from Santa Cruz Biotechnology and anti-elF2alpha[pS^52] were from Invitrogen.
IFN-beta quantification in culture supernatant was performed using the Mouse Interferon Beta ELISA kit (PBL Interferon Source) according to manufacturer instructions.
Normal response of MEFs to poly I:C is characterized by PPP1R15A expression, increase in elF2alpha-P (variable in time and related to the levels PPP1R15A expression) mediated by PKR activation and type-I IFN production (range 500 to 700 pg/ml). Knock out PPP1R15A MEFs are unable to produce this cytokine in response to poly I:C.
The potency of compounds of the invention to inhibit PPP1R15A was evaluated by measuring the increase of elF2alpha phosphorylation, the decrease of PPP1R15A expression due to its own pharmacological inhibition resulting in general protein synthesis inhibition and type-I IFN production.

human alpha2A receptor = target: T1, human alpha2A receptor (Homo sapiens, UniProt P08913); test: Functional GPCR assay for adrenergic α2A receptor (CellKey detection method); conditions: agonist activity, CHO cells expressing human alpha2A receptor, impedance (CellKey); read-out: Functional adrenergic alpha2 receptor assay EC50
T1 construct: CHO cells endogenously expressing human alpha2A receptor; endogenous in cells; host or cells: CHO cells
T1 sequence (P08913 1-465): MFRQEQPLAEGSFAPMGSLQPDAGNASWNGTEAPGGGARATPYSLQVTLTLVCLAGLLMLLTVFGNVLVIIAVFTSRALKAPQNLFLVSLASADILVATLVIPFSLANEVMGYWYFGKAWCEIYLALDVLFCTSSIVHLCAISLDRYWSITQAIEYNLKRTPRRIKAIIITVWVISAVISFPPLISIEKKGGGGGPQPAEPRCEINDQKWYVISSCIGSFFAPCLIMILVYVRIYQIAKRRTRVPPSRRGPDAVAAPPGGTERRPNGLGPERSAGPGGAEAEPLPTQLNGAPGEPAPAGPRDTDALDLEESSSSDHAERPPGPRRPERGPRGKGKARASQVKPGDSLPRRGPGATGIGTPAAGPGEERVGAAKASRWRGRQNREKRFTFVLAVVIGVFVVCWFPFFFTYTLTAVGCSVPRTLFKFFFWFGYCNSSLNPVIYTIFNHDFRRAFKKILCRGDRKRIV
Experimental: The agonist activity of compounds was evaluated on CHO cells […] expressing human alpha2A receptor and was determined by measuring their effects on impedance modulation using the CellKey detection method. Cells were seeded onto 96-well plate at density of 6×10^4 cells/well in HBSS buffer (Invitrogen)+20 mM HEPES (Invitrogen) with 0.1% BSA and are allowed to equilibrate for 60 min at 28° C. before the start of the experiment. Plates were placed onto the system and measurements were made at a temperature of 28° C. Solutions were added simultaneously to all 96 wells using an integrated fluidics system: HBSS (basal control), reference agonist at 100 nM (stimulated control), reference agonist (EC50 determination) or the test compounds. Impedance measurements are monitored for 10 minutes after ligand addition. The standard reference agonist is epinephrine, which is tested in each experiment at several concentrations to generate a concentration-response curve from which its EC50 value is calculated.
Dose-response data from test compounds were analysed with Hill software using non-linear regression analysis of the concentration-response curves generated with mean replicate values using Hill equation curve fitting.

INS1 insulinoma cell = test: INS1 cell line cytoprotection from ER stress (tunicamycin); conditions: 6 hour exposure to tunicamycin 2.5 μg/mL, different concentrations, viability 72h
Experimental: Cells were plated in 96 well plates at a density of 0.5.10^6 cells/mL for Min6 cell line, 0,4.10^6 cells/mL for INS1 cell line the day before the treatment. ER stress was elicited by addition of 2.5 μg/mL tunicamycin (Sigma Aldrich) together with phosphatases inhibitors. Media were changed 6h later with fresh media and the cytoprotection was maintained by the addition of phosphatases inhibitors. Cell viability was assessed by measuring the reduction of WST-8 into formazan using Cell Counting Kit-8 (Sigma) according to the supplier's recommendation, 72h after tunicamycin treatment.

| EC50 (human alpha2A receptor) | SMILES | prevention of type-I IFN production (FIG. 9) [1] | prevention of INS1 insulinoma cell death (FIG. 8) (INS1 insulinoma cell) |
| --- | --- | --- | --- |
| > 33.3 µM | CCCONC(=N)N/N=C/c1ccccc1Cl [Compound 12, 2-(2-chlorobenzylidene)-N-propoxyhydrazinecarboximidamide] | prevent type-I IFN production | prevent INS1 insulinoma cell death |
| > 33.3 µM | CCONC(=N)N/N=C/c1c(F)cccc1Cl [Compound 17, 2-(2-chloro-6-fluorobenzylidene)-N-ethoxyhydrazinecarboximidamide] | prevent type-I IFN production | prevent INS1 insulinoma cell death |
| > 33.3 µM | CCO/N=C(\N)N/N=C/c1ccccc1Cl [Compound 10, 2-(2-chlorobenzylidene)-N′-ethoxyhydrazinecarboximidamide] | prevent type-I IFN production |  |
| > 0.7 µM | CCONC(=N)N/N=C/c1c(Cl)cccc1Cl [Compound 11, 2-(2,6-dichlorobenzylidene)-N-ethoxyhydrazinecarboximidamide] | prevent type-I IFN production | prevent INS1 insulinoma cell death |
